Consider twelve compounds from patent US6881553B2 (priority 1999, dated 2005).

Values after ≈ are worked out from the molar mass of the structure shown. Values joined by “and” are separate entries in the source; they are usually repeats but may differ in a detail not shown here. Equal values may be shown once. “Also recorded” adds a separate entry of the source. Read-outs that look alike come from different tables or passages of the source. Some results are limits rather than exact numbers.

Series [1] relates to L. pneumophila. The settings on record: cited from earlier work.
Series [2] relates to L. pneumophila. The settings on record: cited from earlier work. The source holds these as a separate data set.
The test system of series [3] is L. pneumophila Philadelphia 1. Nature of the series: microbe, parasite or virus in culture. It is filed as cell-based, Legionella pneumophila. The settings on record: for inhibition of 14C-acetate incorporation: 0.5 mM.
The test system of series [4] is L. pneumophila Philadelphia 1. It is filed as cell-based, Legionella pneumophila. As to conditions: disks 2.5 mg or 1.0 mg, BCYE plates, four days.
For series [5], the system named is L. pneumophila F4b. It counts as cell-based, Legionella pneumophila. The settings on record: disks 2.5 mg or 1.0 mg, BCYE plates, four days.
For a further series, the system named is Legionella sp. strains. It is filed as cell-based.
Another series deals with bacterial species. It is filed as cell-based.
Another series deals with Saccharomyces cerevisiae. Put plainly: Zone of inhibition assay on SAB medium.
The conditions of series [6]: mouse, in vivo; cited from earlier work.
For series [7], the system named is L. pneumophila Philadelphia 1. Nature of the series: microbe, parasite or virus in culture. The settings on record: for MIC90: Legionella pneumophila, 48 h, read-out: MIC which inhibited 90% of L. pneumophila growth (MIC90). It is filed as cell-based, Legionella pneumophila.
Series [8] has as its system L. pneumophila in human monocyte-derived macrophages. It is filed as cell-based, Legionella pneumophila.
Series [9] deals with L. pneumophila F4b. Nature of the series: microbe, parasite or virus in culture. It is filed as cell-based. The settings on record: Legionella pneumophila, read-out: concentration giving 50% inhibition of 14C-acetate incorporation.
For series [10], the system named is M. tuberculosis strains. Nature of the series: M. tuberculosis 7H9 broth assay. It is filed as cell-based, Mycobacterium tuberculosis. As to conditions: 21 days, turbidity.
The test system of series [11] is Listeria monocytogenes in mouse J774 macrophage-like cells. As to conditions: GFZ in combination with norfloxacin; cited from earlier work.
Series [12] relates to L. pneumophila. It is filed as cell-based, Legionella pneumophila. As to conditions: GFZ 30 μg/ml, three days on CYE agar.
Series [13] has as its system M. tuberculosis strains. Nature of the series: M. tuberculosis susceptibility assay on Middlebrook agar. The settings on record: 27 strains, OADC Middlebrook agar, three weeks 37° C. It counts as cell-based, Mycobacterium tuberculosis.
A further series concerns L. pneumophila lysates. It counts as biochemical, Legionella pneumophila. The settings on record: for inhibition of 14C-acetate incorporation, lysates compared with whole cells: 0.4 mM or 2.0 mM.
The subject of the next series is atypical mycobacteria. Put plainly: Zone of inhibition assay. The settings on record: standard laboratory media. It is filed as cell-based.
Series [14] concerns L. pneumophila in PMA-differentiated HL-60 cells. It is filed as cell-based, Legionella pneumophila.
In another series the test system is Pseudomonas aeruginosa. It is filed as cell-based.
In a further series the test system is Candida albicans. Put plainly: Zone of inhibition assay on SAB medium.
A further series deals with Nocardia sp. It counts as cell-based.
For a further series, the system named is J774 cells. As to conditions: treatment of J774 cells with GFZ; cited from earlier work.
Series [15] can be described thus: Solubility observations in media. It counts as physicochemical. As to conditions: aqueous medium.
The target in series [16] is L. pneumophila FabX enoyl reductase (His-tagged FabX). It is filed as biochemical. The settings on record: competitive with regard to DCA (dodecenoyl-CoA) substrate; 100 μM NADH, 100 mM NaPO4 pH 7.4; value (+/- spread).
Series [17] has as its target M. tuberculosis InhA enoyl reductase (Mycobacterium tuberculosis, UniProt P9WGR1). Put plainly: biochemical.
Series [18] concerns the target L. pneumophila FabT enoyl reductase (His-tagged FabT) (Legionella pneumophila, UniProt Q5ZUE4). Put plainly: biochemical.
In a further series the target is M. tuberculosis InhA (Mycobacterium tuberculosis, UniProt P9WGR1). The settings on record: pH 7.4.
For a further series, the system named is L. pneumophila FabT. It counts as biochemical, Legionella pneumophila. As to conditions: dodecenoyl-CoA substrate, 100 μM NADH, pH 7.4.
The next series has as its system L. pneumophila FabX. It counts as biochemical, Legionella pneumophila. As to conditions: dodecenoyl-CoA substrate, 100 μM NADH, pH 7.4.

Broadly, the Ki is the equilibrium dissociation constant of an inhibitor or competing ligand from its target.

Sequence of L. pneumophila FabT enoyl reductase (His-tagged FabT) (Q5ZUE4 1-268): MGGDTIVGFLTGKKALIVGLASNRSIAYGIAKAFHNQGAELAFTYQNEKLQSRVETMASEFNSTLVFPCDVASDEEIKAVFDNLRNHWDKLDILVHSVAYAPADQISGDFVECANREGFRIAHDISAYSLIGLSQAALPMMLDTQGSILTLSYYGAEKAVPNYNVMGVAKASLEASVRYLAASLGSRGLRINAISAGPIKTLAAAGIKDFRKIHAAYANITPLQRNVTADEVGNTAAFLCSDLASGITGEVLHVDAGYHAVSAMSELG
Sequence of M. tuberculosis InhA (P9WGR1 whole entry, looked up): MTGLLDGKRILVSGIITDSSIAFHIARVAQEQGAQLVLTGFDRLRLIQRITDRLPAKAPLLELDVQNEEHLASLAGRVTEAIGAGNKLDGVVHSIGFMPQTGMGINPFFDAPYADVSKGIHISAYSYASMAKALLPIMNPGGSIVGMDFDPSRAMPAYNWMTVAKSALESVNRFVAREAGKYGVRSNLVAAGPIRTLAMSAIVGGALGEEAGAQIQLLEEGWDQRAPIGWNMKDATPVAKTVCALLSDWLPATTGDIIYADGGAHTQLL
Sequence of M. tuberculosis InhA enoyl reductase (P9WGR1 whole entry, looked up): as above

Turning to `CO[C@H]1/C=C/O[C@@]2(C)Oc3c(C)c(O)c4c(O)c(c(/C=N/N5CCN(C)CC5)c(O)c4c3C2=O)NC(=O)/C(C)=C\C=C\[C@H](C)[C@H](O)[C@@H](C)[C@@H](O)[C@@H](C)[C@H](OC(C)=O)[C@@H]1C` [rifampin], the “concentration inhibiting intracellular growth” value with L. pneumophila [1] was 0.1 µg/mL. For the same compound, the “concentration inhibiting extracellular growth” value in the series with L. pneumophila [2] is 0.002 µg/mL.

In the case of `O=C(O)c1ccccc1O` [2-hydroxybenzoic acid], the “inhibition of 14C-acetate incorporation” value in series [3] is reported as “some efficacy”. The “antibacterial activity by zone of inhibition” value (in [4]; with L. pneumophila F4b [5]) was “more sensitive to 2-hydroxybenzoic acid (salicylic acid) than GFZ” each time.

Turning to `O=C(O)CCc1ccc(O)cc1` [Analog 4-HPA, 4-hydroxyphenylpropionic acid], the “antibacterial activity by zone of inhibition” value (in series [4]; with L. pneumophila F4b [5]) was “equally inhibitory” in each case.

Regarding `O=C(O)CCc1ccc(O)c(O)c1` [3,4-HPA, 3,4-dihydroxyphenyl propionic acid], the “antibacterial activity by zone of inhibition” value (in series [4]; in the series with L. pneumophila F4b [5]) was “equally inhibitory” throughout.

As to `Cc1ccc(C)c(OCCCC(C)(C)C(=O)O)c1` [GFZ, gemfibrozil], the “sensitivity of Legionella sp. strains (zone of inhibition)” value in the series on Legionella sp. strains is reported as “All 39 Legionella sp. strains were sensitive”. Moreover, the “sensitivity of nonpathogenic bacterial strains” value with bacterial species is given as “four of the eight strains tested demonstrated sensitivity”. Also, in the series with bacterial species, the “share of bacterial species tested that demonstrated susceptibility” value amounted to 33%. Besides, the IC50 in series [3] (Legionella pneumophila, 0.25 h, read-out: concentration giving fifty percent inhibition of 14C-acetate incorporation) is 25 µg/mL (≈ 99.9 µM); in series [3] (Legionella pneumophila, 1 h, read-out: concentration giving 50% inhibition of 14C-acetate incorporation), 10 µg/mL and 40 µM; in series [3] (Legionella pneumophila, read-out: concentration giving 50% inhibition of 14C-acetate incorporation), 100 µM and 25 µg/mL; in the series with L. pneumophila F4b [9], 100 µg/mL and 400 µM. For the same compound, the inhibition at 400 µM in [3] (Legionella pneumophila, read-out: inhibition of 14C-acetate incorporation into TCA precipitable material in whole cells) was > 90%. In series [3] (within 15 minutes), the “lowest concentration that inhibited 14C-acetate incorporation” value was determined as 10 µg/mL. In addition, the susceptibility result in the series on Saccharomyces cerevisiae (SAB medium buffered to pH 7) is on record as “susceptible”; in the series on atypical mycobacteria, “resistant”; in the series with Candida albicans (SAB medium buffered to pH 7), “susceptible”. Moreover, the values for the zone of inhibition result in the series with Saccharomyces cerevisiae (unbuffered medium), in the series on Candida albicans (unbuffered medium) and with Nocardia sp. were “No zone of inhibition”, “No zone of inhibition” and 40-60 mm, respectively. The LD50 in series [6] is listed as 250 mg/20 gm mouse per day. For the same compound, the “bacteriostatic or bacteriocidal effect” value in series [7] (10-200 μg/ml, aliquots of MIC cultures plated on CYE) is “bacteriostatic”. The MIC90 in series [7] was 10 µg/mL (≈ 39.9 µM). Besides, the “intracellular growth of L. pneumophila in human macrophages” value is reported as “inhibited the intracellular growth” in series [8] (0.4 mM (100 μg/ml)) and “no further reduction in L. pneumophila colonies” in series [8] (0.6 mM compared with 0.4 mM). Moreover, the “growth of M. tuberculosis strains in 7H9 broth” value in the series on M. tuberculosis strains [10] was “inhibits the growth”. Also, the “reduction of the norfloxacin concentration required to block intracellular growth” value in series [11] is given as “fourfold”. Besides, in the series on HL-60 cells, the “viability of uninfected HL-60 cells” value is given as “did not affect the viability”. Moreover, the “protection of infected HL-60 cells from L. pneumophila cytolytic effects” value in the series with HL-60 cells (100 μg/ml, infection multiplicity of 0.1 bacteria/cell, 5 days) is on record as “protected infected HL-60 cells”. Moreover, the “change in amount of 3-HB-propyl ester” value in the series with L. pneumophila [12] is “fifty-fold increase”. Also, in the series on M. tuberculosis strains [13], the “concentration that completely inhibited growth of all M. tuberculosis strains” value was in the range of 100 to 200 µg/mL. The “inhibition of 14C-acetate incorporation into TCA precipitable material in a lysate” value with L. pneumophila lysates (0.4 mM) is recorded as 15%. Also, the “inhibition of 14C-acetate incorporation, lysates compared with whole cells” value in the series on L. pneumophila lysates is “not as effective an inhibitor in these lysates as it was in whole cells”. Further, the “inhibition of 14C-acetate incorporation in lysate, comparison between inhibitors” value in the series with L. pneumophila lysates (2 mM) is “not as potent as cerulenin in lysates”. For the same compound, in series [14] (GFZ 0.4 mM (100 μg/ml)), the “L. pneumophila intracellular growth” value is “inhibition of L. pneumophila intracellular growth”. Moreover, the “concentration required to inhibit intracellular growth within macrophages” value in [14] (macrophages) is 100 µg/mL. Further, in [14] (single-round growth assay with gentamicin, GFZ 0.4 mM (100 μg/ml)), the “time after infection at which inhibition of bacterial growth was seen” value was ≤ 8 h. In addition, in the series with Pseudomonas aeruginosa, the growth inhibition result is “did not inhibit the growth”. Besides, the “increase of intracellular concentration of norfloxacin” value in the series with J774 cells was “fourfold”. The “solubility in relation to pH” value in series [15] is on record as “insoluble at an acid pH; also recorded: decreases as pH decreases”.

Consider `Cc1ccc(C)c(OCCCC(C)(C)C(=O)SCCNC(=O)CCNC(=O)[C@H](O)C(C)(C)COP(=O)(O)OP(=O)(O)OC[C@H]2O[C@@H](n3cnc4c(N)ncnc43)[C@H](O)[C@@H]2OP(=O)(O)O)c1` [GFZ], for which the Ki turned out to be 122 µM in series [16], 210 µM in series [17] and 127 µM in series [18].

On to `CCOC(=O)C(C)(C)Oc1ccc(Cl)cc1` [clofibrate], for which the “inhibition of 14C-acetate incorporation” value in series [3] is “some efficacy”. Besides, the “MIC which inhibited 90% of L. pneumophila growth (MIC90)” value in series [7] (AYE broth, 48 hrs at 37° C.) was 100 µg/mL. Moreover, the “effectiveness at inhibiting intracellular growth relative to GFZ” value in series [8] was “much less effective than GFZ”. Also, the “intracellular growth of L. pneumophila in human macrophages” value in series [8] (1 mM) was “able to slow L. pneumophila growth”.

In the case of `CC[C@H]1OC(=O)[C@H](C)[C@@H](O[C@H]2C[C@@](C)(OC)[C@@H](O)[C@H](C)O2)[C@H](C)[C@@H](O[C@@H]2O[C@H](C)C[C@H](N(C)C)[C@H]2O)[C@](C)(O)C[C@@H](C)C(=O)[C@H](C)[C@@H](O)[C@]1(C)O` [erythromycin], in the series on L. pneumophila [2], the “concentration inhibiting extracellular growth” value is 0.2 µg/mL.

Take `CC(C)(Oc1ccc(CCNC(=O)c2ccc(Cl)cc2)cc1)C(=O)O` [bezafibrate]: the MIC90 in series [7] came to 250 µg/mL (≈ 691 µM).

In the case of `Cc1ccc(C)c(OCCCC(C)(C)C(=O)SCCNC(=O)CCNC(=O)[C@H](O)C(C)(C)COP(=O)(O)OP(=O)(O)OC[C@H]2O[C@@H](n3cnc4c(N)ncnc43)[C@H](O)[C@@H]2OP(=O)(O)O)c1` [GFZ-CoA], the “mode of inhibition of enoyl reductase activity” value on M. tuberculosis InhA, with L. pneumophila FabT and in the series with L. pneumophila FabX was “competitive inhibitor” each time.

With `C/C=C/C/C=C/CCC(=O)[C@H]1O[C@H]1C(N)=O` [Cerulenin, cerulenin], the “inhibition of 14C-acetate incorporation relative to GFZ at 100 μg/ml” value in [3] (100 μg/ml (0.45 mM)) is on record as “slightly better inhibitor”. Moreover, the “inhibition of 14C-acetate incorporation, lysates compared with whole cells” value in the series on L. pneumophila lysates is on record as “less effective inhibitor”.

In the case of `Nc1ccc(C(=O)O)c(O)c1` [P-aminosalicyclic acid, para-aminosalicylate], the “inhibition of 14C-acetate incorporation” value in [3] was “some efficacy”.
